Measurements as given in patent US7262003B2, “Plant test procedure to detect natural, semi-synthetic, synthetic compounds and physical stress factors through expression of distinct responses” (Council of Scientific and Industrial Research, priority 1998, dated 2007).
“Also recorded” adds a separate entry of the source. Where two headings read alike, the source gives them in different places.

Tests used:
[1] = tested on: Bacopa monnieri leaf, internode and twig cuttings; test: Response of leaf, internode and twig cutting explants to growth promoters (auxins, cytokinins) in MS 0 medium; assay type: in vivo; details: for Response observed, Cutting: MS 0 medium containing 1.0 mg/litre; for Response observed, Cutting / Response observed, Internode / Response observed, Leaf: recorded up to two weeks; for Response of leaf, internode and cuttings: MS 0 supplemented at 0.5 and 1.0 mg/litre
Method: Initially the experiments were designed to observe the response of leaf, internode and cuttings against growth promoters (auxins: 2,4-D & Indole acetic acid) and […] (cytokinins: 6-Benzyl amino purine & kinetin). The basal medium for studying the response was MS 0 (Murashige T and Skoog F, 1962, Physiol. Planta. 15: 473–497) supplemented with these growth regulators at the rates of 0.5 and 1.0 mg/litre along with a control of just the basal medium.
The basal medium for studying the response was MS 0 (Murashige T and Skoog F, 1962, Physiol. Planta. 15: 473–497) supplemented with test compounds along with a control of just the basal medium. Measured 0.5 ml medium was poured into 1.5 ml graduated microcentrifuge tubes. Into this, twig cutting of 2.5 cm were inoculated in 20 replicates for each type of medium. These inoculated tubes were put into a half transparent (top lid) box allowing air passage through sterile cotton plugs such that the medium containing portion of the tubes where roots would be initiating is inserted into the stand holes made from a thermocol sheet. Refer FIG. 1 of Sheet #1. […] Such boxes were incubated at normal ambient temperature of 25–28° C. with 14 hours light and 10 hours dark cycle.
To find out the effect of growth promoters such as Indole 3 acetic acid (IAA), 2,4-Dichlorophenoxy acetic acid (2,4-D), and cytokinins such as 6-Benzyl Amino Purine (6-BAP) and Kinetin, the leaf, internode and twig cuttings were inoculated into MS 0 medium containing […] of the above said compounds and the responses were recorded up to two weeks in terms of rooting, callusing and shoot regeneration (Table 1).

Bacopa cultures = details: in vivo; cited from earlier work
[2] = tested on: regenerants of Bacopa monniera; details: cited from earlier work
Bacopa root tips = assay type: in vivo, Bacopa monnieri
[3] = tested on: Bacopa monnieri twig cuttings; assay type: in vivo
[4] = tested on: Avocado cv. Verde in vitro; details: antibiotic in the plant growth medium; cited from earlier work
Bacopa monnieri twigs [5] = test: Cytotoxic/weedicidal effect: menthol in medium and Mentha arvensis oil sprayed on twigs; assay type: in vivo; details: menthol added to the medium and oil sprayed on the twigs
Method: We also planned the experiments to determine if this procedure can depict a clear cut manifestation of cytotoxic/weedicidal effect of compounds. For this purpose we used a known essential oil of Mentha arvensis, which is rich in the toxic but useful component, menthol as the treatment. The procedure involved was same as in the above examples with the exception that menthol was added to the medium and oil was sprayed on these twigs which were inoculated into the medium. […] Refer to FIG. #4 of Sheet #2.

Bacopa monnieri twigs [6] = test: Growth inhibitor test on twigs in basal MS media; assay type: in vivo; details: after 10 days of inoculation
Method: The basal medium for studying the response was MS 0 (Murashige T and Skoog F, 1962, Physiol. Planta. 15: 473–497) supplemented with test compounds along with a control of just the basal medium. Measured 0.5 ml medium was poured into 1.5 ml graduated microcentrifuge tubes. Into this, twig cutting of 2.5 cm were inoculated in 20 replicates for each type of medium. These inoculated tubes were put into a half transparent (top lid) box allowing air passage through sterile cotton plugs such that the medium containing portion of the tubes where roots would be initiating is inserted into the stand holes made from a thermocol sheet. Refer FIG. 1 of Sheet #1. This set up was helpful in preventing the light exposure to the root portion while at the same time aerial parts got sufficient light and aeration. Such boxes were incubated at normal ambient temperature of 25–28° C. with 14 hours light and 10 hours dark cycle. […] The earliest response was seen was on day 3 in the case of medium containing ¼th level of nitrogen followed by medium containing normal level of nitrogen, while in the case of zero nitrogen, initiation was observed only after 8 days. Thus, the medium with ¼ nitrogen level of standard MS basal medium was selected for root assays and was referred as MSR (rooting) medium.
The effects of growth inhibitors were also tested using the protocol as described in Example 1. […]

[7] = 10 and 100 μg/ml in MSR, up to day 15
[8] = concentrations ranging from 1 to 100 μg/ml, 14 days

Q: For `O=C(O)COc1ccc(Cl)cc1Cl` [2,4-D, 2,4-Dichlorophenoxy acetic acid], which “Response observed, Cutting” value [1] is on record?
A: Aerial Root

Q: And the “Response observed, Internode” value ([1]; MS 0 medium containing 1 mg/ml)?
A: Root Initiation; also recorded: Root Thickening; also recorded: Explant Swelling

Q: And the “Response observed, Leaf” value ([1]; MS 0 medium containing 1 mg/ml)?
A: Root Initiation; also recorded: Root Thickening; also recorded: Callus Initiation

Q: And the “Response of leaf, internode and cuttings” value [1]?
A: small thick roots got initiated at the internodes

Q: With `[Cl][Al]([Cl])[Cl]` [AlCl3] as the molecule, how does the “Concentration beyond which Bacopa cultures could not survive” value (Bacopa cultures) read?
A: 400 µM

Q: Which results are given for `c1ccc(CNc2ncnc3nc[nH]c23)cc1` [BAP, 6-Benzyl Amino Purine]?
A: Response observed, Cutting [1]: Root Initiation and Root; Response observed, Internode ([1]; MS 0 medium containing 1 mg/ml): Callus Initiation; also recorded: Shoot; Response observed, Leaf ([1]; MS 0 medium containing 1 mg/ml): Callus Initiation; also recorded: Shoot; Response of leaf and internodal explant ([1]; MS 0 medium containing 1 mg/ml, up to two weeks): green callus has formed, followed by shoot regeneration; Response of leaf, internode and cuttings [1]: green callus developed in all three explants followed by shoot regeneration

Q: What does the source list for `[Cd]` [Cd, cadmium]?
A: Concentration tolerated ([2]; grown with additional supply of Cu): up to 100 μM; Concentration beyond which regenerants did not survive ([2]; in vivo): 50 µM

Q: Which results are given for `O=C(O)Cc1c[nH]c2ccccc12` [IAA, Indole 3 acetic acid]?
A: Response observed, Cutting [1]: Aerial Root; Response observed, Internode ([1]; MS 0 medium containing 1 mg/ml): Root Initiation; Response observed, Leaf ([1]; MS 0 medium containing 1 mg/ml): Root Initiation; Response of leaf, internode and cuttings [1]: profuse rooting

Q: With `c1coc(CNc2ncnc3[nH]cnc23)c1` [Kinetin] as the molecule, how does the “Response observed, Cutting” value [1] read?
A: Root Initiation and Root

Q: And the “Response observed, Internode” value ([1]; MS 0 medium containing 1 mg/ml)?
A: No Response

Q: What about the “Response observed, Leaf” value ([1]; MS 0 medium containing 1 mg/ml) of the same molecule?
A: Root Initiation

Q: Which “Effect on mitotic index (words)” value (Bacopa root tips; 10 μg/ml) does the source give for `CC(=O)O[C@H]1C(=O)[C@@]2(C)[C@H]([C@H](OC(=O)c3ccccc3)[C@]3(O)C[C@H](OC(=O)[C@H](O)[C@@H](NC(=O)c4ccccc4)c4ccccc4)C(C)=C1C3(C)C)[C@]1(OC(C)=O)CO[C@@H]1C[C@@H]2O` [Taxol, taxol] here?
A: significantly reduce the mitotic index

Q: What about the “Reduction of mitotic index compared to untreated control samples” value (Bacopa root tips; 10 μg/ml) of the same molecule?
A: 2.55 fold

Q: What about the “Number of cells in phase Ana” value (Bacopa root tips; 10 μg/ml, dipping 3 hours) of the same molecule?
A: 01

Q: What about the “Number of cells in phase Meta” value (Bacopa root tips; 10 μg/ml, dipping 3 hours) of the same molecule?
A: 03

Q: What about the “Number of cells in phase Pro” value (Bacopa root tips; 10 μg/ml, dipping 3 hours) of the same molecule?
A: 01

Q: What about the “Number of cells in phase Telo” value (Bacopa root tips; 10 μg/ml, dipping 3 hours) of the same molecule?
A: 00

Q: What about the “Mitotic Index” value (Bacopa root tips; 10 μg/ml, dipping 3 hours, 10 randomly selected fields) of the same molecule?
A: 7.14 ± 1.52

Q: And the “Effect on mitotic index (words)” value (Bacopa root tips; 10 μg/ml, listed as taxol)?
A: substantial reduction in the mitotic index

Q: And the “Cell division in the root tips” value (Bacopa root tips; 100 μg/ml)?
A: inhibited almost complete cell division

Q: What about the Root initiation [3, 7] of the same molecule?
A: inhibited the complete root initiation

Q: What about the “Visible effect on the aerial parts” value [3, 7] of the same molecule?
A: wilting of the leaves

Q: What about the Root initiation [3, 8] of the same molecule?
A: did not initiate the roots at all

Q: And the “Shoot growth and health” value [3, 8]?
A: no shoot growth; also recorded: wilting and later withering

Q: For `O=C(N[C@H](CO)[C@H](O)c1ccc([N+](=O)[O-])cc1)C(Cl)Cl` [chloramphenicol], which “Toxicity to avocado (length of sprouts reduced)” value [4] is on record?
A: toxic

Q: Which “Spread of chlorophyll loss” value (Bacopa monnieri twigs [5]) does the source give for `CC1CCC(C(C)C)C(O)C1` (centres unmarked) [menthol] here?
A: within a week time covered whole twig

Q: What does the source list for `CCn1cc(C(=O)O)c(=O)c2ccc(C)nc21` [nalidixic acid, Nalidixic acid]?
A: Root initiation and growth (Bacopa monnieri twigs [6]; 10 μg/ml): roots got initiated from the submerged nodes but their growth was less than the control; Root initiation and growth (Bacopa monnieri twigs [6]; 100 μg/ml): very small roots arose from submerged node and their growth was completely arrested; Toxicity to avocado (length of sprouts reduced) [4]: toxic

Q: With `[H]/N=C(/N)N[C@H]1[C@H](O)[C@@H](O)[C@H](O[C@@H]2O[C@@H](C)[C@](O)(C=O)[C@H]2O[C@@H]2O[C@@H](CO)[C@H](O)[C@@H](O)[C@@H]2NC)[C@@H](N/C(N)=N\[H])[C@@H]1O` [streptomycin] as the molecule, how does the “Toxicity to avocado (length of sprouts reduced)” value [4] read?
A: toxic
